Source: patent US12398127B2, “Thyroid hormone receptor beta agonist compounds” (Terns Pharmaceuticals, Inc., priority 2019, dated 2025)

Legend:
TR beta-LBD = target: T1, TR beta-LBD (Homo sapiens, UniProt P10828); assay: LanthaScreen TR-FRET Thyroid Receptor beta Coactivator Assay; format: biochemical; conditions: for THRβ-Selectivity: THR beta over THR alpha, derived from T3-selectivity normalized data; for EC50: TR-FRET coactivator recruitment, 2 hour incubation at room temperature, run in duplicate multiple times, average data reported, read-out: EC50 THRβ-FRET
T1 construct: TR alpha-LBD (0.4 nM final concentration) or TR beta-LBD (1.0 nM final concentration) was added; purchased ThermoFisher
T1 sequence (P10828 217-461 limits assumed): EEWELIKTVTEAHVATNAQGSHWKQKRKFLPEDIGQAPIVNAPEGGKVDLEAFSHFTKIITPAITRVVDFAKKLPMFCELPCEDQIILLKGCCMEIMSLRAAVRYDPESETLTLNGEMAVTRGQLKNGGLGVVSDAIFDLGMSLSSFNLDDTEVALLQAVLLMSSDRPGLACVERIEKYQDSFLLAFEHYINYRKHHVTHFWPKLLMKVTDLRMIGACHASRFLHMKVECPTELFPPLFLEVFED
Method: (§1) LanthaScreen™ TR-FRET Thyroid Receptor alpha Coactivator Assay kit (ThermoFisher) and LanthaScreen™ TR-FRET Thyroid Receptor beta Coactivator Assay kit (ThermoFisher) were used for agonist compound screening. Compounds in DMSO were diluted using ECHO Liquid Handler (Labcyte Inc.) into 384 plates in 10-point 3-fold series in duplicate (5 micro M final top concentration). Buffer C (ThermoFisher) was added to each well before the 4×mixture of fluorescein-SCR2-2 coactivator (200 nM final concentration), Terbium-labeled anti-GST antibody (2 nM final concentration), and TR alpha-LBD (0.4 nM final concentration) or TR beta-LBD (1.0 nM final concentration) was added. After 2 hour incubation at room temperature in dark, the TR-FRET signal was measured on an EnVision plate reader (PerkinElmer) with excitation at 340 nm and dual emission readout at 495 and 520 nm with the delay time of 100 micro second and the integration time of 200 micro second. The ratio of emission signal at 520 and at 495 was used to calculate EC50 using GraphPad Prism (GraphPad Software). In every batch of compound screening, T3 (L-3,3′,5-Triiodothyronine sodium salt, >95%) (Calbiochem) was used as reference compound. The EC50 of T3 measured were within 3-fold of the reference value provided by the assay kit manufacturer (ThermoFisher Scientific). The Z′ factors measured in every batch of screening using T3 as high percent effect (HPE) control and 0.5% DMSO as zero percent effect (ZPE) control were in the range of 0.5 to 0.8. Compounds' THR-beta selectivity values are derived from T3-selectivity normalized data.

TR alpha-LBD = target: T2, TR alpha-LBD (Homo sapiens, UniProt P10827); assay: LanthaScreen TR-FRET Thyroid Receptor alpha Coactivator Assay; format: biochemical; conditions: TR-FRET coactivator recruitment, 2 hour incubation at room temperature; run in duplicate multiple times, average data reported; read-out: EC50 THRα-FRET
T2 construct: TR alpha-LBD (0.4 nM final concentration) or TR beta-LBD (1.0 nM final concentration) was added; purchased ThermoFisher
T2 sequence (P10827 163-410 isoform P10827-2 limits assumed, other chains not shown): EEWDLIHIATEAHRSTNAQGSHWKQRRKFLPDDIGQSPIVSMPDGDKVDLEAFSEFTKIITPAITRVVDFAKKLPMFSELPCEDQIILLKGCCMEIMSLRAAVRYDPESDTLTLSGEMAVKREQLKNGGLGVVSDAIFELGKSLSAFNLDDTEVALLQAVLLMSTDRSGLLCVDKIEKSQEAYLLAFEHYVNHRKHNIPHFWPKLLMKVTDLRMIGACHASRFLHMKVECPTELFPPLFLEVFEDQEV
Method: as §1, with “The EC50 of T3 measured were within 3-fold of the reference value provided by the assay kit manufacturer (ThermoFisher Scientific).” left out, “Compounds' THR-beta selectivity values are derived from T3-selectivity normalized data.” left out

Row | Structure (SMILES) | THRβ-Selectivity (TR beta-LBD) | EC50 (TR beta-LBD) | EC50 (TR alpha-LBD)
1 | O=C(Nc1cc(Cl)c(Oc2n[nH]c(=O)c3ccccc23)c(Cl)c1)c1noc(=O)[nH]1 [Example 1, N-(3,5-dichloro-4-((4-oxo-3,4-dihydrophthalazin-1-yl)oxy)phenyl)-5-oxo-4,5-dihydro-1,2,4-oxadiazole-3-carboxamide] | 57.5 | 33.7 nM | 492 nM
2 | Cn1nc(Oc2c(Cl)cc(NC(=O)c3noc(=O)[nH]3)cc2Cl)c2ccccc2c1=O [Example 2, N-(3,5-dichloro-4-((3-methyl-4-oxo-3,4-dihydrophthalazin-1-yl)oxy)phenyl)-5-oxo-4,5-dihydro-1,2,4-oxadiazole-3-carboxamide] | 10.9 | 5.5 nM | 40.5 nM
